pEC50: −log10 of the molar value. ≈ marks a conversion by molar mass, not a printed value.
Experiments:
Homo sapiens = species on record: Homo sapiens; test: Chaperone activity at GCase L444P GBA gene mutant in human fibroblasts derived from Gaucher patient assessed as increase in GPN-induced reduction of calcium release using Fluo-8AM based fluorescence assay relative to control
[1] = Chaperone activity at GCase L444P GBA gene mutant in human fibroblasts derived from Gaucher patient assessed as increase in GPN-induced reduction of calcium release using Fluo-8AM based fluorescence assay
[2] = molecular target: T1, Estrogen receptor (Homo sapiens) (UniProt P03372); test: Agonist activity at estradiol receptor (unknown origin) at 10 uM relative to control
T1 sequence (whole entry): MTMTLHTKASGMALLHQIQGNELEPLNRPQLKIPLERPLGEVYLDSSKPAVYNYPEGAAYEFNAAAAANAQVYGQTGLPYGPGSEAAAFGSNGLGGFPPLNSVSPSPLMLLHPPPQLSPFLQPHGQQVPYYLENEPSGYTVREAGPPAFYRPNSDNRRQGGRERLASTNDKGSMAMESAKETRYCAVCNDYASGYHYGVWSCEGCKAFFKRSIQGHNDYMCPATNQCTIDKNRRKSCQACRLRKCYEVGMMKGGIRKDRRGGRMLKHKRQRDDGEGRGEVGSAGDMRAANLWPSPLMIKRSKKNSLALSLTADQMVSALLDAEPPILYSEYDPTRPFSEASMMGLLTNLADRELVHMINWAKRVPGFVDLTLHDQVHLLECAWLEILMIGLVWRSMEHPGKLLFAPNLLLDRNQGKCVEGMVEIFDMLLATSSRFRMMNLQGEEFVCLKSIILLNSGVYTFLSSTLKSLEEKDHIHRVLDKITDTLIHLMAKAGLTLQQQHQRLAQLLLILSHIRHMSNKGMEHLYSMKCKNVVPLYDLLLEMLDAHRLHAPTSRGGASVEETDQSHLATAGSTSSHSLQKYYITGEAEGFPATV

[3] = Aqueous solubility of compound in PBS; format: physicochemical; conditions: buffer
[4] = mouse, microsomes
Description: Metabolic stability in mouse liver microsomes assessed as half life

[5] = human, microsomes
[6] = molecular target: T2, Lysosomal acid glucosylceramidase (Homo sapiens) (UniProt P04062); test: Chaperone activity at GCase in wild-type human fibroblasts assessed as increase in GPN-induced reduction of calcium release using Fluo-8AM based fluorescence assay relative to control
T2 sequence (whole entry): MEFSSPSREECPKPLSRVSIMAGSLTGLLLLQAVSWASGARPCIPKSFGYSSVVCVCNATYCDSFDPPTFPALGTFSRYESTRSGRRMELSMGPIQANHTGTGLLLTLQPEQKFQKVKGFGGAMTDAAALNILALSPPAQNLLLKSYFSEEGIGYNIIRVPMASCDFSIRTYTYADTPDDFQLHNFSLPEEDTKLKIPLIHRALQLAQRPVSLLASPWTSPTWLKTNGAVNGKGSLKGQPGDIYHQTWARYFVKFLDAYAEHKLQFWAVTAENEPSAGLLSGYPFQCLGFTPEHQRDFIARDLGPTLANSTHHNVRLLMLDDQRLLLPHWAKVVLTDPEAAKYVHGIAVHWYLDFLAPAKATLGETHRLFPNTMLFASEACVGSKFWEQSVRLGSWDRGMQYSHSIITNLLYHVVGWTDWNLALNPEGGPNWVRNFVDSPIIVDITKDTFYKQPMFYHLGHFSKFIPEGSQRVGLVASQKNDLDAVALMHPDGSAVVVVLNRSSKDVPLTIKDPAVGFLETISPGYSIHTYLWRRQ

Structure (SMILES)	Emax (Homo sapiens)	pEC50 [1]	Activity [2]	solubility [3]	t1/2 [4]	t1/2 [5]	Emax [6]
CC/C(=C/c1ccc(OCCN(C)C)cc1)Cc1ccccc1	40%	5.64	47%				
CCCC(CCC)(C(=O)c1ccc(OCCN(C)C)cc1)c1ccccc1	60%	5.40	25%				
C/C=C/c1ccccc1C(CCCC)C(=O)c1ccc(OCCN(C)C)cc1 (configuration not stated)	257%	5.66	35%	45.2 µM (≈ 17.2 µg/mL)	9.1 min	24.4 min	109%
CC/C(=C/c1ccc(OCCN(C)C)cc1)c1ccc(Cl)cc1	70%	5.27	70%				
CCCCC(C(=O)c1ccc(OCCN(C)C)cc1)c1ccccc1C(C)C (configuration not stated)	401%	5.85	45%	49.4 µM (≈ 18.8 µg/mL)	7.9 min	21.6 min	56%
C=Cc1ccccc1C(CCCC)C(=O)c1ccc(OCCN(C)C)cc1 (configuration not stated)	177%	5.64	100%				
CCC(Cc1ccccc1)c1ccc(OCCN(C)C)cc1 (configuration not stated)	0%	< 4.70	75%				
CC/C(=C/c1ccc(OCCN(C)C)cc1)c1ccc(N)cc1	0%	< 4.70	25%				
CC(C)CC(C(=O)c1ccc(OCCN(C)C)cc1)c1cccc(C(C)C)c1 (configuration not stated)	80%	5.82					
CC/C(=C\c1ccccc1)c1ccc(OCCN(C)C)cc1	53%	5.52	43%				
CC(C)CC(C(=O)c1ccc(OCCN(C)C)cc1)c1ccccc1C1CC1 (racemic)	240%	5.51	0%	31.7 µM (≈ 12 µg/mL)	7.7 min	26.7 min	50%
CC(C)CC(C(=O)c1ccc(OCCN(C)C)cc1)c1ccccc1 (configuration not stated)	108%	6.05	40%				
CC/C(=C(\c1ccc(I)cc1)c1ccc(OCCN2CCCC2)cc1)c1ccccc1 [IDOXIFENE]	48%	4.97					
CC/C(=C/c1ccc(OCCN(C)C)cc1)c1ccc(C#N)cc1	47%	5.37	32%				
CC(C)C(C(=O)c1ccc(OCCN(C)C)cc1)c1ccccc1 (configuration not stated)	54%	5.36					
CCCC/C(=C\c1ccc(OCCN(C)C)cc1)c1ccccc1	56%	5.14	98%				
CC/C(=C/c1ccc(OCCN(C)C)cc1)c1ccc([N+](=O)[O-])cc1	0%	< 4.70					
CCC(Cc1ccc(OCCN(C)C)cc1)c1ccccc1 (configuration not stated)	154%	5.37	43%				
CC/C(=C(\c1ccccc1)c1ccc(OCCN(C)C)cc1)c1ccccc1	148%						28%
CC/C(=C\c1ccc(OCCN(C)C)cc1)c1ccccc1	73%	5.24	19%				
CCCCC(C(=O)c1ccc(OCCN(C)C)cc1)c1ccccc1 (configuration not stated)	0%	< 4.70					
CC/C(=C/c1ccc(OCCN(C)C)cc1)c1ccc(C(N)=O)cc1	0%	< 4.70	46%				
CC/C(=C/c1ccc(OCCN(C)C)cc1)c1ccccc1	80%	4.81	35%				
CC(C)CC(C(=O)c1ccc(OCCN(C)C)cc1)c1ccccc1C(C)C (configuration not stated)	406%		39%				148%
CCCCC(C(=O)c1ccc(OCCN(C)C)cc1)c1ccccc1CC (configuration not stated)	138%	6.19					
CC/C(=C/c1ccc(OCCN(C)C)cc1)c1ccc(F)cc1	0%	< 4.70	46%				
CC(C)CCC(C(=O)c1ccc(OCCN(C)C)cc1)c1ccccc1 (configuration not stated)	191%	5.44	35%				
CCCCCCC(C(=O)c1ccc(OCCN(C)C)cc1)c1ccccc1 (configuration not stated)	0%	< 4.70	5%				
CC/C(=C\c1ccc(OCCN(C)C)cc1)Cc1ccccc1	67%	5.51	69%				
